Results as given in article PMC6399351, “Cationic Intrinsically Disordered Antimicrobial Peptides (CIDAMPs) Represent a New Paradigm of Innate Defense with a Potential for Novel Anti-Infectives” (Scientific Reports, 2019).
Converted amounts (≈) assume the structure as drawn. Where two headings read alike, the source gives them in different places. Peptide text beside a SMILES is read from it. * marks the point of attachment. Palmitoyl = CCCCCCCCCCCCCCCC(=O)*

How the values were obtained:
[1] = test system: Clostridium perfringens ATCC 13124; settings: CFU assay, 10 mM NaP
[2] = test system: Cryptococcus neoformans ATCC 208821; assay: CO-ADD MIC, antifungal assay (CLSI); assay type: cell-based; settings: Yeast Nitrogen Base broth, 24 h 35 °C, by CO-ADD
Method: (§1) Fungi strains were cultured for 3 days on Yeast Extract-Peptone Dextrose (YPD) agar at 30 °C. A yeast suspension of 1 × 10^6 to 5 × 10^6 cells/mL (as determined by OD530) was prepared from five colonies. These stock suspensions were diluted with Yeast Nitrogen Base (YNB) broth to a final concentration of 2.5 × 10^3 CFU/mL. […] Plates were covered and incubated at 35 °C for 24 h without shaking.

[3] = test system: Candida albicans ATCC 90028; assay: CO-ADD MIC, antifungal assay (CLSI); assay type: cell-based; settings: Yeast Nitrogen Base broth, 24 h 35 °C, by CO-ADD
Method: as §1

P. aeruginosa ATCC 10145 = settings: CFU assay, 10 mM NaP, pH 7.3, 1% TSB
S. aureus ATCC 6538 = settings: CFU assay, 10 mM NaP
[4] = test system: Klebsiella pneumonia ATCC 700603; settings: MDR strain; CLSI, Mueller–Hinton broth, 5 × 10^5 CFU/mL, 18 h 37 °C, by CO-ADD
[5] = test system: Streptococcus pyogenes ATCC 12344; assay: CFU assay of antimicrobial activity; assay type: cell-based; settings: 10 mM NaP
Method: (§2) All purified peptides and recombinant proteins were applied using a colony forming unit (CFU) assay in different media. Bacteria were grown to early log-phase in BHI, washed either with 10 mM Na-P, pH 7.4/1% TSB or pH 5.5/1% TSB, or pH 5.5 without TSB or BHI, and adjusted to a concentration of 10^4–10^5 colony forming units (CFU)/ml. For cell number control, 100 µl aliquots were diluted 1:10, 1:100 and 1:1000 and plated in duplicates on BHI agar plates. To 100 µl aliquots of the bacteria, suspended in the respective medium (10 mM Na-P buffer pH 7,0–7,4/ 1% (w/v) TSB; […]; 10 mM Na-P buffer pH 7,0–7,4/ 1% (w/v) TSB pH 7,0–7,4/ 0,25% (w/v) glucose; 10 mM Na-P buffer pH 5,5/ 0,25% (w/v) glucose, respectively), 10 µl of a solution of the peptide or protein (two-fold dilutions, from 300 µg/ml or 150 µg/ml down to 19 ng/ml), dissolved in 0.01% (v/v) acetic acid, were added.
(§3) Then bacteria were incubated for 2 h at ambient temperature, if not otherwise stated. 10 µl of 0.01% (v/v) acetic acid, added to 100 µl aliquots of the bacteria in the respective medium, served as negative control. From each test, 1:10 and 1:100 dilutions were generated and plated as duplicates of 100 µl aliquots on BHI agar plates. After 16 h incubation at 37 °C, CFU were counted using a colony counter (Bio Kobe, Japan) and expressed as mean of the duplicate estimation to achieve a complete dose-response curve. All experiments were performed at serial dilutions in a concentration range of 100 µg/mL −25 ng/mL for recombinant HRNR fragments and 300 or 150 µg/mL–19 ng/mL for synthetic peptides.

[6] = test system: Streptococcus pneumoniae ATCC 33400; assay: CFU assay of antimicrobial activity; assay type: cell-based; settings: 10 mM NaP
Method: as §2, §3

[7] = test system: Burkholderia cepacia ATCC 25416; settings: CFU assay, 10 mM NaP
[8] = test system: Acinetobacter baumannii ATCC 19606; assay: CO-ADD MIC, broth microdilution (CLSI); assay type: cell-based; settings: Mueller–Hinton broth, 5 × 10^5 CFU/mL, 18 h 37 °C, by CO-ADD
Description: (§4) They were defined as the lowest peptide
(§5) Further details of the screening

[9] = test system: Pseudomonas aeruginosa ATCC 27853; assay: CO-ADD MIC, broth microdilution (CLSI); assay type: cell-based; settings: Mueller–Hinton broth, 5 × 10^5 CFU/mL, 18 h 37 °C, by CO-ADD
Description: as §4, §5

[10] = test system: Prevotella oralis ATCC 33321; assay: CFU assay of antimicrobial activity; assay type: cell-based; settings: 10 mM NaP
Method: All purified peptides and recombinant proteins were applied using a colony forming unit (CFU) assay in different media. Bacteria were grown to early log-phase in BHI, washed either with 10 mM Na-P, pH 7.4/1% TSB or pH 5.5/1% TSB, or pH 5.5 without TSB or BHI, and adjusted to a concentration of 10^4–10^5 colony forming units (CFU)/ml. For cell number control, 100 µl aliquots were diluted 1:10, 1:100 and 1:1000 and plated in duplicates on BHI agar plates. To 100 µl aliquots of the bacteria, suspended in the respective medium (10 mM Na-P buffer pH 7,0–7,4/ 1% (w/v) TSB; 10 mM Na-P buffer pH 5,5/ 1% (w/v) TSB; 10 mM Na-P buffer pH 7,0–7,4/ 1% (w/v) TSB pH 7,0–7,4/ 0,25% (w/v) glucose; […], respectively), 10 µl of a solution of the peptide or protein (two-fold dilutions, from 300 µg/ml or 150 µg/ml down to 19 ng/ml), dissolved in 0.01% (v/v) acetic acid, were added.
as §3

E. coli ATCC 25922 = assay: CO-ADD MIC, broth microdilution (CLSI); assay type: cell-based, Escherichia coli; settings: Mueller–Hinton broth, 5 × 10^5 CFU/mL, 18 h 37 °C, by CO-ADD
Description: as §4, §5

[11] = test system: Staphylococcus aureus ATCC 43300; settings: MRSA; CLSI, Mueller–Hinton broth, 5 × 10^5 CFU/mL, 18 h 37 °C, by CO-ADD
[12] = test system: Propionibacterium acnes ATCC 6919; assay: CFU assay of antimicrobial activity; assay type: cell-based; settings: 10 mM NaP
Method: (§6) All purified peptides and recombinant proteins were applied using a colony forming unit (CFU) assay in different media. Bacteria were grown to early log-phase in BHI, washed either with 10 mM Na-P, pH 7.4/1% TSB or pH 5.5/1% TSB, or pH 5.5 without TSB or BHI, and adjusted to a concentration of 10^4–10^5 colony forming units (CFU)/ml. For cell number control, 100 µl aliquots were diluted 1:10, 1:100 and 1:1000 and plated in duplicates on BHI agar plates. To 100 µl aliquots of the bacteria, suspended in the respective medium (10 mM Na-P buffer pH 7,0–7,4/ 1% (w/v) TSB; 10 mM Na-P buffer pH 5,5/ 1% (w/v) TSB; 10 mM Na-P buffer pH 7,0–7,4/ 1% (w/v) TSB pH 7,0–7,4/ 0,25% (w/v) glucose; 10 mM Na-P buffer pH 5,5/ 0,25% (w/v) glucose, respectively), 10 µl of a solution of the peptide or protein (two-fold dilutions, from 300 µg/ml or 150 µg/ml down to 19 ng/ml), dissolved in 0.01% (v/v) acetic acid, were added.
as §3

[13] = test system: Klebsiella pneumoniae ATCC 13883; settings: CFU assay, 10 mM NaP, pH 5.5, 0.25% glucose
[14] = test system: Staphylococcus epidermidis ATCC 14990; assay: CFU assay of antimicrobial activity; assay type: cell-based; settings: 10 mM NaP, pH 7.3, 1% TSB
Method: as §6, §3

Structure (SMILES) | LD90 ([1]; pH 7.3, 0.25% glucose) [µg/mL] | Minimal inhibitory concentration (MIC) [2] [µg/mL] | Minimal inhibitory concentration (MIC) [3] [µg/mL] | LD90 (S. aureus ATCC 6538; pH 5.5, 0.25% glucose) [µg/mL] | LD90 (S. aureus ATCC 6538; pH 7.3, 1% TSB) [µg/mL] | Minimal inhibitory concentration (MIC) [4] [µg/mL] | LD90 ([5]; pH 7.3, 0.25% glucose) [µg/mL] | LD90 ([6]; pH 7.3, 0.25% glucose) [µg/mL] | LD90 ([7]; pH 7.3, 0.25% glucose) [µg/mL] | Minimal inhibitory concentration (MIC) [8] [µg/mL] | Minimal inhibitory concentration (MIC) [9] [µg/mL] | LD90 ([10]; pH 7.3, 1% TSB) [µg/mL] | Minimal inhibitory concentration (MIC) (E. coli ATCC 25922) [µg/mL] | Minimal inhibitory concentration (MIC) [11] [µg/mL] | LD90 ([12]; pH 7.3, 1% TSB) [µg/mL] | further results
CCCCCCCCCCCCCCCC(=O)NCC(=O)N[C@@H](CCCNC(=N)N)C(=O)N[C@@H](CCCNC(=N)N)C(=O)NCC(=O)N[C@@H](CO)C(=O)NCC(=O)N[C@@H](CC(C)C)C(=O)NCC(=O)N[C@@H](CCCNC(=N)N)C(=O)N[C@@H](CO)C(=O)N[C@@H](CO)C(=O)N[C@@H](CO)C(=O)N[C@@H](CCCNC(=N)N)C(=O)NCC(=O)N[C@@H](CCC(N)=O)C(=O)N[C@@H](CCCNC(=N)N)C(=O)NCC(=O)N[C@@H](CO)C(=O)NCC(=O)N[C@@H](CO)C(=O)NCC(=O)N[C@@H](CCCNC(=N)N)C(=O)O [Pal-HR 1-18-HR] (Palmitoyl-GRRGSGLGRSSSRGQRGSGSGR-OH) | 4.7 | 1 (≈ 0.414 µM) | >32 | 0.3 | 1.18 | >32 | 0.15 | 9.38 | 75 | 1 (≈ 0.414 µM) | 16 (≈ 6.63 µM) | 37.5 | 4 (≈ 1.66 µM) | 8 (≈ 3.31 µM) | 1.18 | LD90 (P. aeruginosa ATCC 10145): 1.18 µg/mL; LD90 ([7]; pH 7.3, 1% TSB): 75 µg/mL
CCCCCCCCCCCCCCCC(=O)NCC(=O)N[C@@H](CCCNC(=N)N)C(=O)N[C@@H](Cc1c[nH]cn1)C(=O)NCC(=O)N[C@@H](CO)C(=O)NCC(=O)N[C@@H](CC(C)C)C(=O)NCC(=O)N[C@@H](Cc1c[nH]cn1)C(=O)N[C@@H](CO)C(=O)N[C@@H](CO)C(=O)N[C@@H](CO)C(=O)N[C@@H](Cc1c[nH]cn1)C(=O)NCC(=O)N[C@@H](CCC(N)=O)C(=O)N[C@@H](Cc1c[nH]cn1)C(=O)NCC(=O)N[C@@H](CO)C(=O)NCC(=O)N[C@@H](CO)C(=O)NCC(=O)N[C@@H](CCCNC(=N)N)C(=O)O [Pal-HR 1-18] (Palmitoyl-GRHGSGLGHSSSHGQHGSGSGR-OH) | 4.7 | >32 | >32 | 1.18 | > 300 | >32 | 0.15 | 2.35 | 75 | 32 (≈ 13.7 µM) | >32 | 18.75 | >32 | >32 | 1.18 | LD90 ([1]; pH 5.5, 0.25% glucose): 37.5 µg/mL; LD90 ([1]; pH 7.3, 1% TSB): 18.75 µg/mL; LD90 ([5]; pH 7.3, 1% TSB): 9.38 µg/mL; LD90 ([6]; pH 7.3, 1% TSB): 9.38 µg/mL; LD90 [13]: 0.3 µg/mL; LD90 ([10]; pH 6.5, 0.25% glucose): 37.5 µg/mL; LD90 ([12]; pH 5.5, 0.25% glucose): 0.3 µg/mL; LD90 ([12]; pH 7.3, 0.25% glucose): 0.59 µg/mL; LD90 [14]: > 300 µg/mL
